In ChEMBL document CHEMBL4020831, “Discovery of GDC-0853: A Potent, Selective, and Noncovalent Bruton's Tyrosine Kinase Inhibitor in Early Clinical Development” (J Med Chem, 2018):
Converted amounts (≈) assume the structure as drawn. The source made the active and inactive calls. No cut-off for these calls is given here.

Key:
[1] = molecular target: Nav1.5 (Homo sapiens, UniProt Q14524); assay: Inhibition of human Nav1.5 expressed in CHO cells at 10 uM incubated for 3 to 5 mins by QPatch clamp assay; assay type: cell-based; details: CHO cells expressing human Nav1.5
[2] = test system: Salmonella typhimurium; assay: Genotoxicity in Salmonella typhimurium TA100 after 48 to 72 hrs in presence of liver S9 fraction by Ames test; assay type: toxicity; details: salmonella enterica subsp. enterica serovar typhimurium
[3] = test system: Rattus norvegicus; assay: Time at which plasma concentration stays above in vitro IC50 for BTK autophosphorylation at Y223 in rat whole blood in Lewis rat collagen-induced arthritis model at 1 to 16 mg/kg, po qd measured during 24 hrs dosing
[4] = test system: Rattus norvegicus; assay: Antiinflammatory activity in Lewis rat collagen-induced arthritis model assessed as reduction in ankle diameter AUC at 0.25 mg/kg, po administered qd for 16 days relative to control; assay type: functional; details: 384 h
[5] = test system: Salmonella typhimurium; assay: Genotoxicity in Salmonella typhimurium TA100 after 48 to 72 hrs in absence of liver S9 fraction by Ames test; assay type: toxicity; details: salmonella enterica subsp. enterica serovar typhimurium
[6] = test system: Rattus norvegicus; assay: Antiinflammatory activity in Lewis rat collagen-induced arthritis model assessed as reduction in ankle inflammation at 0.125 to 2 mg/kg, po administered bid for 16 days; assay type: functional, organism-based
[7] = test system: Salmonella typhimurium; assay: Genotoxicity in Salmonella typhimurium TA97a after 48 to 72 hrs in absence of liver S9 fraction by Ames test; assay type: toxicity; details: salmonella enterica subsp. enterica serovar typhimurium
[8] = test system: Rattus norvegicus; assay: Antiinflammatory activity in Lewis rat collagen-induced arthritis model assessed as reduction in ankle diameter AUC at 16 mg/kg, po administered qd for 16 days relative to control; assay type: functional; details: 384 h
[9] = test system: Rattus norvegicus; assay: Time at which plasma concentration stays above IC90 for BTK autophosphorylation at Y223 in rat whole blood in Lewis rat collagen-induced arthritis model at 0.125 to 2 mg/kg, po bid measured during 12 hrs dosing
[10] = molecular target: ERBB4 (Homo sapiens, UniProt Q15303); assay: Inhibition of recombinant human cytoplasmic GST-tagged ERBB4 expressed in baculovirus at 1 uM by Z'-LYTE assay
[11] = molecular target: T1, TEC (Homo sapiens, UniProt P42680); assay: Inhibition of recombinant human cytoplasmic full length His-tagged TEC expressed in baculovirus at 1 uM by Z'-LYTE assay
T1 sequence (P42680 whole entry): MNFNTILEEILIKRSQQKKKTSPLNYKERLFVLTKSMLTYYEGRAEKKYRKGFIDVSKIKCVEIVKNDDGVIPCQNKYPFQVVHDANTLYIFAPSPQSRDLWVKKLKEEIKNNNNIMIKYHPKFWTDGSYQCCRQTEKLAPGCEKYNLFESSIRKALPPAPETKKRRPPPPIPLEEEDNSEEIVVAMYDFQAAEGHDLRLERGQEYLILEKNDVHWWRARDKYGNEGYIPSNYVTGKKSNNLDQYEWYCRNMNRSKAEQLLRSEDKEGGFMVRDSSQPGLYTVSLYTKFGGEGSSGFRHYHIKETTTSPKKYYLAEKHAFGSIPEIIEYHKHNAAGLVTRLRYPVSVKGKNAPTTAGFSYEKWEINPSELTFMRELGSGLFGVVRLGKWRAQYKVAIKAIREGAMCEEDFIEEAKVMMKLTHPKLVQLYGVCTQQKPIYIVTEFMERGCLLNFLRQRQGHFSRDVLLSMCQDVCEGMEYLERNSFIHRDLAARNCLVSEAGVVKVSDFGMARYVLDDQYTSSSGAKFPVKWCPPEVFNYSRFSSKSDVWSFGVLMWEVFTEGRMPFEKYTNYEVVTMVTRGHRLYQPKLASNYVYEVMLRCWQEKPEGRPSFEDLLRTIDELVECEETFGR

[12] = Aqueous solubility of the compound; assay type: physicochemical; details: buffer
[13] = molecular target: BLK (Homo sapiens, UniProt P51451); assay: Inhibition of recombinant human full length His-tagged BLK expressed in baculovirus at 1 uM by Z'-LYTE assay
[14] = molecular target: T2, JAK3 (Homo sapiens, UniProt P52333); assay: Inhibition of recombinant human catalytic GST-tagged JAK3 expressed in baculovirus at 1 uM by Z'-LYTE assay
T2 sequence (P52333 whole entry): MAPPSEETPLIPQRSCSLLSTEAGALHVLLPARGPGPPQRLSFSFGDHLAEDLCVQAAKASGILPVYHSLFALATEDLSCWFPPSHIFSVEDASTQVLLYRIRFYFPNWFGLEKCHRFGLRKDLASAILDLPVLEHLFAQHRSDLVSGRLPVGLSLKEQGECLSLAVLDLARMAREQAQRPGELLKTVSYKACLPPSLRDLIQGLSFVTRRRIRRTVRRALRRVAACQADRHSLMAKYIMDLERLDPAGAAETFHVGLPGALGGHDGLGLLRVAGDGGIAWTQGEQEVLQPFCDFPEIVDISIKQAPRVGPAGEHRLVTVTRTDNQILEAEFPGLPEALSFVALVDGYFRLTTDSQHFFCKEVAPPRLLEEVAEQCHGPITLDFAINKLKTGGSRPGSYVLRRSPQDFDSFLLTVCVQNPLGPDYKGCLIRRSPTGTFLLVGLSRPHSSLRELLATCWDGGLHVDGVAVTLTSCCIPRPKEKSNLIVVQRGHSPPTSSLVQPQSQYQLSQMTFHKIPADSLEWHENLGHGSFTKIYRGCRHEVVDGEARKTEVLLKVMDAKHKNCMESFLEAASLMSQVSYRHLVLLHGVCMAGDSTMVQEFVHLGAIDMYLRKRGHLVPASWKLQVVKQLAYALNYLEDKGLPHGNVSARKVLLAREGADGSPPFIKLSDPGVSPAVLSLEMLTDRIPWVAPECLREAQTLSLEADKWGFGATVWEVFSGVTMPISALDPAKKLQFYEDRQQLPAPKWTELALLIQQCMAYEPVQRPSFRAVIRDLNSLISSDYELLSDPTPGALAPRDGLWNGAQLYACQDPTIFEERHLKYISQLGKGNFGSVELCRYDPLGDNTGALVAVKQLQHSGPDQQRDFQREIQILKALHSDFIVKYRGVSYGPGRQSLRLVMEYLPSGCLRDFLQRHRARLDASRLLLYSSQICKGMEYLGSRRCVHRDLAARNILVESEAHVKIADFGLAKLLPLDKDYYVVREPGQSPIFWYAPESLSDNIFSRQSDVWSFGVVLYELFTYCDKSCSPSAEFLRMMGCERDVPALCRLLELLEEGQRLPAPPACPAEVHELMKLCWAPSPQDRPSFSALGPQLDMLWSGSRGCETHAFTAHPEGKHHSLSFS

[15] = test system: Rattus norvegicus; assay: Antiinflammatory activity in Lewis rat collagen-induced arthritis model assessed as reduction in ankle diameter AUC at 1 mg/kg, po administered qd for 16 days relative to control; assay type: functional; details: 384 h
[16] = test system: Rattus norvegicus; assay: Antiinflammatory activity in Lewis rat collagen-induced arthritis model assessed as reduction in bone resorption at 0.125 to 2 mg/kg, po administered bid for 16 days; assay type: functional, organism-based
[17] = test system: Homo sapiens; assay: Toxicity in human at 500 mg administered qd for 14 days; details: in vivo, 336 h
[18] = test system: Rattus norvegicus; assay: Antiinflammatory activity in Lewis rat collagen-induced arthritis model assessed as reduction in ankle pannus at 0.06 to 16 mg/kg, po administered qd for 16 days; assay type: functional, organism-based

Sequence of BLK (P51451 whole entry): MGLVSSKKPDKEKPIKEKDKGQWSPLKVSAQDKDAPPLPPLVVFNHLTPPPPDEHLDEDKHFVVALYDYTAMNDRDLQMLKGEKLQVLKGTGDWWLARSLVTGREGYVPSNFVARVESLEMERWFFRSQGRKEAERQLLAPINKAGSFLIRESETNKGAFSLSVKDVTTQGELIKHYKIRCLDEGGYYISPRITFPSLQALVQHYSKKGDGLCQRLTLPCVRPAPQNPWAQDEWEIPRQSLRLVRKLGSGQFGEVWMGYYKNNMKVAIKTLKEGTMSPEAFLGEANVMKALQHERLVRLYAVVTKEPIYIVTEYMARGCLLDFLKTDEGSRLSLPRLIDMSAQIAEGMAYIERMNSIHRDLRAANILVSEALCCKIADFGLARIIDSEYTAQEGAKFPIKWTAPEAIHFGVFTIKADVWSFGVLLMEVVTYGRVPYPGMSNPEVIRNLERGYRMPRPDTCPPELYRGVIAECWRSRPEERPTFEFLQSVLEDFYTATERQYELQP
Sequence of Nav1.5 (Q14524 whole entry): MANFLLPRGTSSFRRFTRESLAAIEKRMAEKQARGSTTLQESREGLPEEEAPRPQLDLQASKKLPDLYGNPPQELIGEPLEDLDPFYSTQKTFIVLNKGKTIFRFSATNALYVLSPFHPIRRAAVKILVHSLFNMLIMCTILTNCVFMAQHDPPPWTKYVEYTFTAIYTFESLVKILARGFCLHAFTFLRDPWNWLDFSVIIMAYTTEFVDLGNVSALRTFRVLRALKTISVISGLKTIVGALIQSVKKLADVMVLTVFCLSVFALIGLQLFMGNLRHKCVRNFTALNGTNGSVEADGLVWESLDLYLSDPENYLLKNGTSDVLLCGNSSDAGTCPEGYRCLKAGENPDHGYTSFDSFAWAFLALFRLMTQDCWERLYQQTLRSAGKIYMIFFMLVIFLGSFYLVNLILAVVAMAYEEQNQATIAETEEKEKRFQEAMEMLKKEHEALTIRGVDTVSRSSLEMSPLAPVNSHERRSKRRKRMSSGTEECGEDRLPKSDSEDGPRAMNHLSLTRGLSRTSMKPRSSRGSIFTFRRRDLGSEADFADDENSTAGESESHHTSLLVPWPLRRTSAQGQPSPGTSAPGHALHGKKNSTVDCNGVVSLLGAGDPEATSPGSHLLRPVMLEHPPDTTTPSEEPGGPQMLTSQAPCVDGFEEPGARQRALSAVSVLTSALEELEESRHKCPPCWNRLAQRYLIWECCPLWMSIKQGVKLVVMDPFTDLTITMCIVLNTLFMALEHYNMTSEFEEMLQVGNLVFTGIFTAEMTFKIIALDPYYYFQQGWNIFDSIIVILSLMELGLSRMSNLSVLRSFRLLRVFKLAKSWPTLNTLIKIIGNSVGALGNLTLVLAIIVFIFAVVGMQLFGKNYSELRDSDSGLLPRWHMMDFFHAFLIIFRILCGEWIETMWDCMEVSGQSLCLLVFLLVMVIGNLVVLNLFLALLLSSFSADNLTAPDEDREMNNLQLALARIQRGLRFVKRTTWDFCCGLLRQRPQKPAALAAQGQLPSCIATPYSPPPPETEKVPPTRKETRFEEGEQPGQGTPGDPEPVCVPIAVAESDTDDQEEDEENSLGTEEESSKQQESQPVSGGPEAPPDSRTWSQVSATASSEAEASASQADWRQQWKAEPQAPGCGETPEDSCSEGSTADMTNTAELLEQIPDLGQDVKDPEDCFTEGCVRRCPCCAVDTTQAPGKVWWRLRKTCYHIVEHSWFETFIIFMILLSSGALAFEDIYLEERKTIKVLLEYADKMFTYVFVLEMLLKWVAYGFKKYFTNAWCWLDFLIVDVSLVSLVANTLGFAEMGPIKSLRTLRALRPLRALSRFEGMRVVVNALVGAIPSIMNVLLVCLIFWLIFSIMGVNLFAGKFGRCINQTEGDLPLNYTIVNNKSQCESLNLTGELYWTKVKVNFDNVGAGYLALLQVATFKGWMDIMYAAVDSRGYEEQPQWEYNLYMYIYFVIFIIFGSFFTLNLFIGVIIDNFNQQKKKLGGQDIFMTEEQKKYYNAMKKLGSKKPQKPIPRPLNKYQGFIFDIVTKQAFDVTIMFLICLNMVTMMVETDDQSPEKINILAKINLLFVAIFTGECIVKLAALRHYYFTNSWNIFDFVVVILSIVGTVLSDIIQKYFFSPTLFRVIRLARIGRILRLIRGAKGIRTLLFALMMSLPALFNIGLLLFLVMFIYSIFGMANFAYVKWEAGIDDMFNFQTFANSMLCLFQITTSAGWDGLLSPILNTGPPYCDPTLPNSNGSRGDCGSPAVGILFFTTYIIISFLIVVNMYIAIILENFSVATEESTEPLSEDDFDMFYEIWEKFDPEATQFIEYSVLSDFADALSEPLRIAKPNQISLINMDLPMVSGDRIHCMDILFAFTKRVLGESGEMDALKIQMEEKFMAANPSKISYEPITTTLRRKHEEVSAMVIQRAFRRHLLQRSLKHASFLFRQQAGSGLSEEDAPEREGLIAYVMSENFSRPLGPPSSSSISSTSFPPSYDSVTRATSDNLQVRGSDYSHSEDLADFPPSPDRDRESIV
Sequence of ERBB4 (Q15303 whole entry): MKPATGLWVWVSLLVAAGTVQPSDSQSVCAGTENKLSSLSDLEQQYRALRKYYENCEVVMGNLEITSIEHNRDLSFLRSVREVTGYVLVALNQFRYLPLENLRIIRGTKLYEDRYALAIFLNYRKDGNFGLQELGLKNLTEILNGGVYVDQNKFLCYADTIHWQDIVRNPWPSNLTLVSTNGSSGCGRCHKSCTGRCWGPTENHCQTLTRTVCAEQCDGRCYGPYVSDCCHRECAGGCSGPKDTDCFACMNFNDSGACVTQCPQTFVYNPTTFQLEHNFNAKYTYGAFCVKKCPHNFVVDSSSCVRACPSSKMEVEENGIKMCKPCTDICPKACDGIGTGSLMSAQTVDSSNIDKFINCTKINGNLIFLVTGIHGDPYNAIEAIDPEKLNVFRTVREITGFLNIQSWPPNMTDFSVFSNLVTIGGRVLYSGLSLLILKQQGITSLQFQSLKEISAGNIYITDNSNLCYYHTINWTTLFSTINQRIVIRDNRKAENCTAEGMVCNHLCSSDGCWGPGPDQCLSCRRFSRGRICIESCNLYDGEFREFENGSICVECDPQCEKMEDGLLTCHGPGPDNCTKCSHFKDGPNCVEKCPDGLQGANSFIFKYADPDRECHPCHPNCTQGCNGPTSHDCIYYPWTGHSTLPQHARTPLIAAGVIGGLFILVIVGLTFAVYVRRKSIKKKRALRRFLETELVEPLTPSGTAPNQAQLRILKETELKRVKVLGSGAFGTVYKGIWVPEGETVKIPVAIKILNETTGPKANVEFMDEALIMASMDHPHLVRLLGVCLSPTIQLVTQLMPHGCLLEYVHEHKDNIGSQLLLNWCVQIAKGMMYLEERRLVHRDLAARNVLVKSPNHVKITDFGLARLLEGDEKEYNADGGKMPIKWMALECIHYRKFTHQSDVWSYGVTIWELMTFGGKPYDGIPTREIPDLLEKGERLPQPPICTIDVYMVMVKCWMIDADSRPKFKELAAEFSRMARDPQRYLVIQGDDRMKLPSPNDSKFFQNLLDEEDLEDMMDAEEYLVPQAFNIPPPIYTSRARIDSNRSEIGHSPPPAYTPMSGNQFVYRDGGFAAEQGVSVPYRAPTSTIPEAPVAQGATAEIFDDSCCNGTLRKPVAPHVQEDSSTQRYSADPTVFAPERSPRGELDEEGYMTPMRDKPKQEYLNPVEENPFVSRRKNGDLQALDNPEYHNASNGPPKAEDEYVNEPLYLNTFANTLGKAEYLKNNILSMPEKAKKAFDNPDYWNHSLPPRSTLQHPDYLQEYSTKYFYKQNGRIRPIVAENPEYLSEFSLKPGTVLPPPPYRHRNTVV

inhibition at 1 µM [10]: 1%
inhibition at 1 µM [11]: 23%
solubility [12]: 3 µg/mL (≈ 4.51 µM)
inhibition at 1 µM [13]: 6%
inhibition at 1 µM [14]: 5%
SMILES: C[C@H]1CN(C2COC2)CCN1c1ccc(Nc2cc(-c3ccnc(N4CCn5c(cc6c5CC(C)(C)C6)C4=O)c3CO)cn(C)c2=O)nc1 [FENEBRUTINIB]
inhibition at 10 µM [1]: 1.9%
Activity [2]: Non-Toxic
Time [3]: 12 h
inhibition in vivo at 0.25 mg/kg [4]: 26%
Activity [5]: Non-Toxic
Activity [6]: Active
Activity [7]: Non-Toxic
inhibition in vivo at 16 mg/kg [8]: 99%
Time [9]: 6 h
inhibition in vivo at 1 mg/kg [15]: 71%
Activity [16]: Active
Activity [17]: Non-Toxic
Activity [18]: Active
